Test results: PMC6979384, “Characterization of the plant homeodomain (PHD) reader family for their histone tail interactions” (Epigenetics & Chromatin, 2020)

Legend:
Assay in all cases: Histone peptide microarray
Type in all cases: binding, human
BPTF (PB) = settings: BPTF (PB), GST-tagged; arrays performed twice, n of 4
Description: (§1) To more comprehensively define the histone interactions of the 31 PHD readers identified from the domain microarray analyses, we probed each on an alternate microarray platform containing a library of 293 synthetic histone peptides with single or combinatorial PTMs (Additional file 2: Figure S4 and Additional file 3: Table S2).
(§2) The 31 GST-tagged PHD readers identified in the PHD finger domain array were expressed and purified as previously. Histone peptide arrays and peptide pulldown assays were conducted as recently described (specifically, the optimized protocol from Petell et al. for the former).
(§3) Supplementary file 13072_2020_328_MOESM3_ESM.xlsx: Additional file 3: Table S2. […] Excel Tab Peptide List is a compiled list of the entire 293 histone peptide library with amino acid sequence ranges. […] Each number corresponds to the peptide number designated in Peptide List. Excel Tab Average Signals is a compiled set of binding data: chromatin reader at 0.5 μM vs. entire 293 peptide library. Data is presented as the average and standard deviation of 4 replicates. The average signals are colored to indicate signal intensity with green being strong and white being weak/low. […] Key: red= stronger relative binding; blue = weaker relative binding. Excel Tab Array info summary is a table summarizing the domains, sequence coverage, array signal range, and noise for each of the GST-tagged readers assayed on the peptide microarrays.

KDM5A (1) = settings: KDM5A (1), GST-tagged; arrays performed twice, n of 4
Description: as §1, §2, §3

DPF2 (PPC2W2) = settings: DPF2 (PPC2W2), GST-tagged; arrays performed twice, n of 4
Description: as §1, §2, §3

ING5 = settings: ING5, GST-tagged; arrays performed twice, n of 4
Description: as §1, §2, §3

ING4 = settings: ING4, GST-tagged; arrays performed twice, n of 4
Description: as §1, §2, §3

ING1 = settings: ING1, GST-tagged; arrays performed twice, n of 4
Description: as §1, §2, §3

ING2 = settings: ING2, GST-tagged; arrays performed twice, n of 4
Description: as §1, §2, §3

ING3 = settings: ING3, GST-tagged; arrays performed twice, n of 4
Description: as §1, §2, §3

PHF21A = settings: PHF21A, GST-tagged; arrays performed twice, n of 4
Description: as §1, §2, §3

KDM7A = settings: KDM7A, GST-tagged; arrays performed twice, n of 4
Description: as §1, §2, §3

DIDO1 = settings: DIDO1, GST-tagged; arrays performed twice, n of 4
Description: as §1, §2, §3

PHF8 = settings: PHF8, GST-tagged; arrays performed twice, n of 4
Description: as §1, §2, §3

PHF13 = settings: PHF13, GST-tagged; arrays performed twice, n of 4
Description: as §1, §2, §3

CHD5 (PPCC) = settings: CHD5 (PPCC), GST-tagged; arrays performed twice, n of 4
Description: as §1, §2, §3

CHD5 (PCC) = settings: CHD5 (PCC), GST-tagged; arrays performed twice, n of 4
Description: as §1, §2, §3

RAG2 = settings: RAG2, GST-tagged; arrays performed twice, n of 4
Description: as §1, §2, §3

CHD4 (PPCC) = settings: CHD4 (PPCC), GST-tagged; arrays performed twice, n of 4
Description: as §1, §2, §3

PHRF1 (RP) = settings: PHRF1 (RP), GST-tagged; arrays performed twice, n of 4
Description: as §1, §2, §3

PHF2 = settings: PHF2, GST-tagged; arrays performed twice, n of 4
Description: as §1, §2, §3

PHF23 = settings: PHF23, GST-tagged; arrays performed twice, n of 4
Description: as §1, §2, §3

KDM4C (TTP) = settings: KDM4C (TTP), GST-tagged; arrays performed twice, n of 4
Description: as §1, §2, §3

BAZ2B = settings: BAZ2B, GST-tagged; arrays performed twice, n of 4
Description: as §1, §2, §3

AIRE (PP) = settings: AIRE (PP), GST-tagged; arrays performed twice, n of 4
Description: as §1, §2, §3

MLL5 = settings: MLL5, GST-tagged; arrays performed twice, n of 4
Description: as §1, §2, §3

KDM5A (3) = settings: KDM5A (3), GST-tagged; arrays performed twice, n of 4
Description: as §1, §2, §3

SP140L = settings: SP140L, GST-tagged; arrays performed twice, n of 4
Description: as §1, §2, §3

KDM5B (3) = settings: KDM5B (3), GST-tagged; arrays performed twice, n of 4
Description: as §1, §2, §3

MORC3 (CW) = settings: MORC3 (CW), GST-tagged; arrays performed twice, n of 4
Description: as §1, §2, §3

TAF3 = settings: TAF3, GST-tagged; arrays performed twice, n of 4
Description: as §1, §2, §3

TRIM66 (PB) = settings: TRIM66 (PB), GST-tagged; arrays performed twice, n of 4
Description: as §1, §2, §3

Row | Substance | Array Heatmap value (peptide array binding signal) (BPTF (PB)) | Array Heatmap value (peptide array binding signal) (KDM5A (1)) | Array Heatmap value (peptide array binding signal) (DPF2 (PPC2W2)) | Array Heatmap value (peptide array binding signal) (ING5) | Array Heatmap value (peptide array binding signal) (ING4) | Array Heatmap value (peptide array binding signal) (ING1) | Array Heatmap value (peptide array binding signal) (ING2) | Array Heatmap value (peptide array binding signal) (ING3) | Array Heatmap value (peptide array binding signal) (PHF21A) | Array Heatmap value (peptide array binding signal) (KDM7A) | Array Heatmap value (peptide array binding signal) (DIDO1) | Array Heatmap value (peptide array binding signal) (PHF8) | Array Heatmap value (peptide array binding signal) (PHF13) | Array Heatmap value (peptide array binding signal) (CHD5 (PPCC)) | Array Heatmap value (peptide array binding signal) (CHD5 (PCC)) | Array Heatmap value (peptide array binding signal) (RAG2) | Array Heatmap value (peptide array binding signal) (CHD4 (PPCC)) | Array Heatmap value (peptide array binding signal) (PHRF1 (RP)) | Array Heatmap value (peptide array binding signal) (PHF2) | Array Heatmap value (peptide array binding signal) (PHF23) | further results
1 | H4K8ac + K12ac + K16ac: H4 1-23 | 0.384 | 0.498 | 0.6365 | 0.3961 | 0.4992 | 0.5851 | 0.6214 | 0.5255 | 0.5044 | 0.4096 | 0.7526 | 0.3768 | 0.6695 | 0.614 | 0.7879 | 0.271 | 0.6125 | 0.4693 | 0.546 | 0.5595 | Array Heatmap value (peptide array binding signal) (KDM4C (TTP)): 0.5459; Array Heatmap value (peptide array binding signal) (BAZ2B): 0.4965; Array Heatmap value (peptide array binding signal) (AIRE (PP)): 0.4841; Array Heatmap value (peptide array binding signal) (MLL5): 0.5342; Array Heatmap value (peptide array binding signal) (KDM5A (3)): 0.5089; Array Heatmap value (peptide array binding signal) (SP140L): 0.383; Array Heatmap value (peptide array binding signal) (KDM5B (3)): 0.4821; Array Heatmap value (peptide array binding signal) (MORC3 (CW)): 0.3996; Array Heatmap value (peptide array binding signal) (TAF3): 0.2999; Array Heatmap value (peptide array binding signal) (TRIM66 (PB)): 0.6251
2 | H4K8ac + K12ac: H4 1-23 | 0.3598 | 0.4987 | 0.6914 | 0.3813 | 0.4864 | 0.5248 | 0.5831 | 0.4849 | 0.4992 | 0.4671 | 0.6459 | 0.3425 | 0.6286 | 0.5916 | 0.8072 | 0.2531 | 0.5759 | 0.4073 | 0.4562 | 0.5272 | Array Heatmap value (peptide array binding signal) (KDM4C (TTP)): 0.5553; Array Heatmap value (peptide array binding signal) (BAZ2B): 0.5085; Array Heatmap value (peptide array binding signal) (AIRE (PP)): 0.5703; Array Heatmap value (peptide array binding signal) (MLL5): 0.5505; Array Heatmap value (peptide array binding signal) (KDM5A (3)): 0.4276; Array Heatmap value (peptide array binding signal) (SP140L): 0.3826; Array Heatmap value (peptide array binding signal) (KDM5B (3)): 0.5016; Array Heatmap value (peptide array binding signal) (MORC3 (CW)): 0.3777; Array Heatmap value (peptide array binding signal) (TAF3): 0.2763; Array Heatmap value (peptide array binding signal) (TRIM66 (PB)): 0.5841
3 | H4K8ac + K20ac: H4 1-23 | 0.3587 | 0.512 | 0.6725 | 0.3709 | 0.4785 | 0.5081 | 0.5825 | 0.4639 | 0.4807 | 0.4148 | 0.6199 | 0.3864 | 0.5975 | 0.5684 | 0.8384 | 0.2452 | 0.5794 | 0.4283 | 0.4411 | 0.5223 | Array Heatmap value (peptide array binding signal) (KDM4C (TTP)): 0.5368; Array Heatmap value (peptide array binding signal) (BAZ2B): 0.4848; Array Heatmap value (peptide array binding signal) (AIRE (PP)): 0.5419; Array Heatmap value (peptide array binding signal) (MLL5): 0.5364; Array Heatmap value (peptide array binding signal) (KDM5A (3)): 0.4422; Array Heatmap value (peptide array binding signal) (SP140L): 0.3646; Array Heatmap value (peptide array binding signal) (KDM5B (3)): 0.4924; Array Heatmap value (peptide array binding signal) (MORC3 (CW)): 0.3621; Array Heatmap value (peptide array binding signal) (TAF3): 0.2852; Array Heatmap value (peptide array binding signal) (TRIM66 (PB)): 0.5664
